Data as given in PubChem BioAssay (NCI).
“And” between values parts separate entries of the source, which are not always exact repeats. Equal values may be shown once.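 Following 48 hours of exposure in 96-well plates, responses at five concentrations were used to interpolate endpoints linearly. GI50 = concentration required for 50% inhibition of growth. At the TGI there is no net growth.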

Tests used:
Assay in all cases: inhibition of tumour cell growth, NCI panel, 48 h
EKVX NSCLC = test system: EKVX NSCLC
NCI-H226 lung = test system: NCI-H226 lung
RPMI-8226 leukemia = test system: RPMI-8226 leukemia
SN12C renal = test system: SN12C renal
MALME-3M melanoma = test system: MALME-3M melanoma
NCI-H23 lung = test system: NCI-H23 lung
HOP-92 NSCLC = test system: HOP-92 NSCLC
BT-549 breast = test system: BT-549 breast
KM12 colon = test system: KM12 colon
DU-145 prostate = test system: DU-145 prostate

| Structure (SMILES) | TGI (EKVX NSCLC) | TGI (NCI-H226 lung) | TGI (RPMI-8226 leukemia) | TGI (SN12C renal) | TGI (MALME-3M melanoma) | TGI (NCI-H23 lung) | GI50 (EKVX NSCLC) | GI50 (HOP-92 NSCLC) | TGI (HOP-92 NSCLC) | GI50 (SN12C renal) | TGI (BT-549 breast) | GI50 (MALME-3M melanoma) | GI50 (KM12 colon) | TGI (KM12 colon) | GI50 (NCI-H23 lung) | TGI (DU-145 prostate) | GI50 (RPMI-8226 leukemia) | GI50 (DU-145 prostate) | GI50 (NCI-H226 lung) | GI50 (BT-549 breast) |
| --- | --- | --- | --- | --- | --- | --- | --- | --- | --- | --- | --- | --- | --- | --- | --- | --- | --- | --- | --- | --- |
| COC1(C)C(=O)N2C1N(C(=O)OCc1ccccc1)CC2(C)C (configuration not stated) | > 100 µM | > 100 µM | > 100 µM | > 100 µM | > 100 µM | > 100 µM | – | – | – | – | – | – | – | – | – | – | – | – | – | – |
| COc1cccc2c1[C@H]1CO[C@H]3C4C[C@H](C(=O)O)C([C@@H](C2)N13)N4C (some centres not stated) | 5.94 µM and 6.16 µM | 5.59 µM | – | 8.32 µM and > 35.8 µM | 4.8 µM and 1.6 µM | 5.47 µM and 1.63 µM | 1.87 µM | 0.684 µM | 4.55 µM and 3.22 µM | 0.884 µM | 0.339 µM | 0.696 µM | 5.21 µM and 0.685 µM | 1.64 µM | 0.564 µM | – | – | – | – | – |
| Cc1occ2c1C(=O)CC1C2[C@@H](O)CC2C(C)(C)CCC[C@]12C (some centres not stated) | > 100 µM | > 100 µM | > 100 µM | > 100 µM | > 100 µM | > 100 µM | – | – | > 100 µM | – | – | – | – | – | – | – | – | – | – | – |
| NCCC(=O)NC(Cc1cnc[nH]1)C(=O)O (configuration not stated) | > 100 µM | > 100 µM | > 100 µM | > 100 µM | > 100 µM | > 100 µM | – | – | > 100 µM | – | – | – | – | > 100 µM | – | > 100 µM | – | – | – | – |
| CC/C=C\C/C=C/C=C1/C(=O)C=C[C@@H]1C/C=C\CCCC(=O)OC | 20.1 µM | – | 12.8 µM | 7.79 µM | 6.64 µM | 4.45 µM | 3.89 µM | 3.07 µM | 8.49 µM | 2.7 µM | – | 2.5 µM | 2.24 µM | 6.59 µM | 1.9 µM | 17.4 µM | 2.46 µM | 4.55 µM | – | – |
| COC/N=C(/N)NC#N | > 100 µM | > 100 µM | > 100 µM | > 100 µM | > 100 µM | > 100 µM | – | – | > 100 µM | – | – | – | – | > 100 µM | – | – | – | – | – | – |
| COc1cc2c(cc1-c1coc3cc(OCC=C(C)C)ccc3c1=O)OCO2 | > 100 µM | – | 66 µM | > 100 µM | – | > 100 µM | – | – | > 100 µM | – | 48.4 µM | – | – | 52.4 µM | – | > 100 µM | – | – | – | – |
| C=C(Br)CNCC(=C)Br | > 100 µM | > 100 µM | > 100 µM | > 100 µM | > 100 µM | > 100 µM | – | – | – | – | – | – | – | > 100 µM | – | > 100 µM | – | – | – | – |
| CCOC1OC(=O)[C@H]2[C@@H]1[C@@H]1CC[C@H]2O1 (some centres not stated) | > 100 µM | > 100 µM | > 100 µM | > 100 µM | – | > 100 µM | > 100 µM | > 100 µM | > 100 µM | > 100 µM | > 100 µM | – | > 76.2 µM | > 100 µM | > 100 µM | > 100 µM | > 29.3 µM | > 100 µM | > 100 µM | > 100 µM |
| CCCCCCCCCCCCCP(=O)(NCC(N)=O)OCC (configuration not stated) | 41 µM | 33.5 µM | – | 34.3 µM | 32.6 µM | 44 µM | – | – | 31.1 µM | – | – | – | – | 34 µM | – | – | – | – | – | – |
| CN1CCc2c1nc(-c1cccnc1)c1c2N(C)CC1 | > 100 µM | – | > 100 µM | > 100 µM | > 100 µM | > 100 µM | – | – | > 100 µM | – | – | – | – | > 100 µM | – | – | – | – | – | – |
| CC(=O)Nc1ccc(C(=O)N2N=C(C)/C(=C/c3cccc([N+](=O)[O-])c3)C2=O)cc1 | > 100 µM | > 100 µM | > 100 µM | > 100 µM | > 100 µM | > 100 µM | – | – | – | – | – | – | – | > 100 µM | – | – | – | – | – | – |
| COc1cccc(C2C(C#N)=C(N)Oc3c2ccc2ccccc32)c1 (configuration not stated) | 19.6 µM | 1 µM | 3.22 µM | 13.5 µM | – | 6.74 µM | 0.0617 µM | < 0.0271 µM | 7.78 µM | 0.0406 µM | 12.1 µM | – | < 0.0116 µM | 2.26 µM | 0.026 µM | 1.43 µM | < 0.019 µM | 0.034 µM | 0.0208 µM | 0.029 µM |
| COCCOCOC(C)(C)[C@H](CCOC(C)=O)O[Si](c1ccccc1)(c1ccccc1)C(C)(C)C | > 100 µM | 19.8 µM | 15.1 µM | 29.5 µM | 55.3 µM | 80 µM | – | – | 27.9 µM | – | – | – | – | > 100 µM | – | – | – | – | – | – |
| C#CCSc1nc(N)c2ncn(C3OC(COP(=O)(O)O)C(O)C3O)c2n1 (configuration not stated) | > 239 µM | > 239 µM | > 239 µM | > 239 µM | > 239 µM | > 239 µM | – | – | > 239 µM | – | – | – | – | > 239 µM | – | – | – | – | – | – |
| O=C(NN1C(=O)CSC1c1ccc(F)cc1)C(O)c1ccccc1 (configuration not stated) | > 100 µM | > 100 µM | > 100 µM | > 100 µM | – | – | > 100 µM | > 100 µM | > 100 µM | > 100 µM | > 100 µM | – | > 100 µM | > 100 µM | – | > 100 µM | 44.4 µM | > 100 µM | > 100 µM | > 100 µM |
| C=C1CC[C@@H]2[C@](C)(COC(C)=O)[C@H](OC(C)=O)CC[C@@]2(C)[C@@H]1CC(Nc1ccc(S(=O)(=O)Nc2nccs2)cc1)C1=CCOC1=O (some centres not stated) | 27 µM | 5.37 µM | 7.62 µM | 4.39 µM | – | 24.8 µM | 14 µM | 12.4 µM | 25.3 µM | 1.87 µM | 6.5 µM | – | 7.58 µM | 21.7 µM | 10 µM | 15.8 µM | 2.49 µM | 4.47 µM | 2.36 µM | 2.43 µM |
| COc1ccc2c(c1)C(=O)c1c-2c(N2CCNCC2)nc2ccccc12 | 17.5 µM | 28.9 µM | 3.39 µM | 14.9 µM | 4.34 µM | – | 4.65 µM | – | – | 3.91 µM | 11.4 µM | 1.79 µM | 2.01 µM | 4.84 µM | – | 4.73 µM | 1.64 µM | 1.89 µM | 10.9 µM | 3.4 µM |
| O=C(CCc1nc(=S)[nH][nH]1)Nc1cccc(C(F)(F)F)c1 | > 100 µM | > 100 µM | > 100 µM | > 100 µM | > 100 µM | > 100 µM | – | – | > 100 µM | – | – | – | – | > 100 µM | – | – | – | – | – | – |
